{"source": "patent US20110039721A1", "about": "“METHOD FOR PREDICTION ABOUT CARCINOGENICITY OF SUBSTANCE IN RODENT” (Chemicals Evaluation and Research Institute, priority 2007, published 2011)", "key": {"liver": {"tested_on": "liver", "conditions": "in vivo; cited from earlier work"}, "[1]": {"tested_on": "mRNA expressed from the genes (A) to (D) in rat liver", "assay": "Behavior of genes (mRNA expression level, oligo-DNA microarray) in rat liver after 28-day oral administration", "type": "in vivo", "how_it_was_run": "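Oral gavage, once daily × 28 days; male F344 SPF rats, 5 wk, n=4/group; vehicle controls given equal solvent volume. Liver excised day 28, total RNA purified. Significance: ≥1.5× or ≤1/1.5 of vehicle, direction concordant with other carcinogens.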"}, "rodent": {"tested_on": "rodent", "conditions": "in vivo; cited from earlier work"}, "[2]": {"conditions": "gene group (A), Unigene No. Rn.167075"}, "[3]": {"conditions": "gene group (C), Unigene No. Rn.120914"}}, "data": [{"smiles": "Cl[C@H]1[C@H](Cl)[C@@H](Cl)[C@@H](Cl)[C@H](Cl)[C@H]1Cl", "note": "[TS057, Lindane]", "values": [{"measurement": "Liver carcinogenicity", "setting": "liver", "result": "Cr−"}, {"measurement": "Behavior of gene caused by administration of chemical substance, Gene No. 154", "setting": "[1]; rat, in vivo", "result": "−"}, {"measurement": "Behavior of gene caused by administration of chemical substance, Gene No. 533", "setting": "[1]; rat, in vivo", "result": "+"}, {"measurement": "Behavior of gene caused by administration of chemical substance, Gene No. 725", "setting": "[1]; rat, in vivo", "result": "−"}, {"measurement": "Behavior of gene caused by administration of chemical substance, Gene No. 813", "setting": "[1]; rat, in vivo", "result": "−"}, {"measurement": "Behavior of gene caused by administration of chemical substance, Gene No. 893", "setting": "[1]; rat, in vivo", "result": "−"}, {"measurement": "Behavior of gene caused by administration of chemical substance, Gene No. 1119", "setting": "[1]; rat, in vivo", "result": "−"}, {"measurement": "Behavior of gene caused by administration of chemical substance, Gene No. 1131", "setting": "[1]; rat, in vivo", "result": "+"}, {"measurement": "Behavior of gene caused by administration of chemical substance, Gene No. 1163", "setting": "[1]; rat, in vivo", "result": "−"}, {"measurement": "Behavior of gene caused by administration of chemical substance, Gene No. 1334", "setting": "[1]; rat, in vivo", "result": "−"}, {"measurement": "Behavior of gene caused by administration of chemical substance, Gene No. 1494", "setting": "[1]; rat, in vivo", "result": "−"}, {"measurement": "Behavior of gene caused by administration of chemical substance, Gene No. 1562", "setting": "[1]; rat, in vivo", "result": "−"}, {"measurement": "Behavior of gene caused by administration of chemical substance, Gene No. 1741", "setting": "[1]; rat, in vivo", "result": "−"}, {"measurement": "Behavior of gene caused by administration of chemical substance, Gene No. 1993", "setting": "[1]; rat, in vivo", "result": "−"}, {"measurement": "Behavior of gene caused by administration of chemical substance, Gene No. 2026", "setting": "[1]; rat, in vivo", "result": "−"}, {"measurement": "Behavior of gene caused by administration of chemical substance, Gene No. 2045", "setting": "[1]; rat, in vivo", "result": "−"}, {"measurement": "Behavior of gene caused by administration of chemical substance, Gene No. 2203", "setting": "[1]; rat, in vivo", "result": "−"}, {"measurement": "Behavior of gene caused by administration of chemical substance, Gene No. 2494", "setting": "[1]; rat, in vivo", "result": "−"}, {"measurement": "Behavior of gene caused by administration of chemical substance, Gene No. 2546", "setting": "[1]; rat, in vivo", "result": "−"}, {"measurement": "Behavior of gene caused by administration of chemical substance, Gene No. 3776", "setting": "[1]; rat, in vivo", "result": "−"}, {"measurement": "Behavior of gene caused by administration of chemical substance, Gene No. 3929", "setting": "[1]; rat, in vivo", "result": "−"}, {"measurement": "Behavior of gene caused by administration of chemical substance, Gene No. 4095", "setting": "[1]; rat, in vivo", "result": "−"}, {"measurement": "Behavior of gene caused by administration of chemical substance, Gene No. 4218", "setting": "[1]; rat, in vivo", "result": "−"}, {"measurement": "Behavior of gene caused by administration of chemical substance, Gene No. 4846", "setting": "[1]; rat, in vivo", "result": "−"}, {"measurement": "Behavior of gene caused by administration of chemical substance, Gene No. 4973", "setting": "[1]; rat, in vivo", "result": "−"}, {"measurement": "Behavior of gene caused by administration of chemical substance, Gene No. 5600", "setting": "[1]; rat, in vivo", "result": "−"}, {"measurement": "Behavior of gene caused by administration of chemical substance, Gene No. 5634", "setting": "[1]; rat, in vivo", "result": "−"}, {"measurement": "Behavior of gene caused by administration of chemical substance, Gene No. 5726", "setting": "[1]; rat, in vivo", "result": "−"}, {"measurement": "Behavior of gene caused by administration of chemical substance, Gene No. 5878", "setting": "[1]; rat, in vivo", "result": "−"}, {"measurement": "Behavior of gene caused by administration of chemical substance, Gene No. 6026", "setting": "[1]; rat, in vivo", "result": "+"}, {"measurement": "Behavior of gene caused by administration of chemical substance, Gene No. 6182", "setting": "[1]; rat, in vivo", "result": "−"}, {"measurement": "Behavior of gene caused by administration of chemical substance, Gene No. 6303", "setting": "[1]; rat, in vivo", "result": "+"}, {"measurement": "Behavior of gene caused by administration of chemical substance, Gene No. 6620", "setting": "[1]; rat, in vivo", "result": "−"}, {"measurement": "Behavior of gene caused by administration of chemical substance, Gene No. 6742", "setting": "[1]; rat, in vivo", "result": "−"}, {"measurement": "Carcinogenicity", "setting": "rodent", "result": "C−"}]}, {"smiles": "Nc1ccc(N)c(Cl)c1.O=S(=O)(O)O", "note": "[TS058, 2-Chloro-p-phenylenediamine SO4]", "values": [{"measurement": "Liver carcinogenicity", "setting": "liver", "result": "Cr−"}, {"measurement": "Behavior of gene caused by administration of chemical substance, Gene No. 4846", "setting": "[1]; gene group (A), Unigene No. Rn.144554", "result": "−"}, {"measurement": "Behavior of gene caused by administration of chemical substance, Gene No. 2026", "setting": "[1]; [2]", "result": "−"}, {"measurement": "Behavior of gene caused by administration of chemical substance, Gene No. 4218", "setting": "[1]; [2]", "result": "−"}, {"measurement": "Behavior of gene caused by administration of chemical substance, Gene No. 6182", "setting": "[1]; gene group (A), Unigene No. Rn.5834", "result": "−"}, {"measurement": "Behavior of gene caused by administration of chemical substance, Gene No. 5600", "setting": "[1]; gene group (A), Unigene No. Rn.9836", "result": "−"}, {"measurement": "Behavior of gene caused by administration of chemical substance, Gene No. 1494", "setting": "[1]; gene group (B), Unigene No. Rn.1430", "result": "−"}, {"measurement": "Behavior of gene caused by administration of chemical substance, Gene No. 2045", "setting": "[1]; gene group (B), Unigene No. Rn.19329", "result": "+"}, {"measurement": "Behavior of gene caused by administration of chemical substance, Gene No. 2203", "setting": "[1]; gene group (B), Unigene No. Rn.21240", "result": "−"}, {"measurement": "Behavior of gene caused by administration of chemical substance, Gene No. 533", "setting": "[1]; gene group (C), Unigene No. Rn.106184", "result": "−"}, {"measurement": "Behavior of gene caused by administration of chemical substance, Gene No. 725", "setting": "[1]; gene group (C), Unigene No. Rn.108075", "result": "−"}, {"measurement": "Behavior of gene caused by administration of chemical substance, Gene No. 1163", "setting": "[1]; gene group (C), Unigene No. Rn.11766", "result": "+"}, {"measurement": "Behavior of gene caused by administration of chemical substance, Gene No. 4973", "setting": "[1]; gene group (C), Unigene No. Rn.118529", "result": "−"}, {"measurement": "Behavior of gene caused by administration of chemical substance, Gene No. 4095", "setting": "[1]; gene group (C), Unigene No. Rn.119024", "result": "−"}, {"measurement": "Behavior of gene caused by administration of chemical substance, Gene No. 1334", "setting": "[1]; [3]", "result": "−"}, {"measurement": "Behavior of gene caused by administration of chemical substance, Gene No. 6620", "setting": "[1]; [3]", "result": "−"}, {"measurement": "Behavior of gene caused by administration of chemical substance, Gene No. 6303", "setting": "[1]; gene group (C), Unigene No. Rn.123063", "result": "−"}, {"measurement": "Behavior of gene caused by administration of chemical substance, Gene No. 5878", "setting": "[1]; gene group (C), Unigene No. Rn.143213", "result": "−"}, {"measurement": "Behavior of gene caused by administration of chemical substance, Gene No. 1131", "setting": "[1]; gene group (C), Unigene No. Rn.144946", "result": "−"}, {"measurement": "Behavior of gene caused by administration of chemical substance, Gene No. 1562", "setting": "[1]; gene group (C), Unigene No. Rn.14744", "result": "−"}, {"measurement": "Behavior of gene caused by administration of chemical substance, Gene No. 1741", "setting": "[1]; gene group (C), Unigene No. Rn.1647", "result": "−"}, {"measurement": "Behavior of gene caused by administration of chemical substance, Gene No. 893", "setting": "[1]; gene group (C), Unigene No. Rn.164817", "result": "−"}, {"measurement": "Behavior of gene caused by administration of chemical substance, Gene No. 6026", "setting": "[1]; gene group (C), Unigene No. Rn.167685", "result": "−"}, {"measurement": "Behavior of gene caused by administration of chemical substance, Gene No. 154", "setting": "[1]; gene group (C), Unigene No. Rn.185941", "result": "+"}, {"measurement": "Behavior of gene caused by administration of chemical substance, Gene No. 1993", "setting": "[1]; gene group (C), Unigene No. Rn.18728", "result": "−"}, {"measurement": "Behavior of gene caused by administration of chemical substance, Gene No. 813", "setting": "[1]; gene group (C), Unigene No. Rn.201760", "result": "−"}, {"measurement": "Behavior of gene caused by administration of chemical substance, Gene No. 2494", "setting": "[1]; gene group (C), Unigene No. Rn.23969", "result": "+"}, {"measurement": "Behavior of gene caused by administration of chemical substance, Gene No. 2546", "setting": "[1]; gene group (C), Unigene No. Rn.24561", "result": "+"}, {"measurement": "Behavior of gene caused by administration of chemical substance, Gene No. 3776", "setting": "[1]; gene group (C), Unigene No. Rn.43232", "result": "−"}, {"measurement": "Behavior of gene caused by administration of chemical substance, Gene No. 3929", "setting": "[1]; gene group (C), Unigene No. Rn.4620", "result": "−"}, {"measurement": "Behavior of gene caused by administration of chemical substance, Gene No. 1119", "setting": "[1]; gene group (C), Unigene No. Rn.9757", "result": "+"}, {"measurement": "Behavior of gene caused by administration of chemical substance, Gene No. 6742", "setting": "[1]; gene group (C), Unigene No. Rn.9779", "result": "−"}, {"measurement": "Behavior of gene caused by administration of chemical substance, Gene No. 5634", "setting": "[1]; gene group (C), Unigene No. Rn.9862", "result": "+"}, {"measurement": "Behavior of gene caused by administration of chemical substance, Gene No. 5726", "setting": "[1]; gene group (D), Unigene No. Rn.9939", "result": "−"}, {"measurement": "Carcinogenicity", "setting": "rodent", "result": "C−"}]}]}
